From patent publication US20100056445A1, “ADIPONECTIN FOR THE TREATMENT AND DIAGNOSIS OF ALBUMINURIA” (THOMAS JEFFERSON UNIVERSITY, priority 2006, published 2010)
Entries after “also recorded” stand apart in the source; their conditions may differ.

Assays:
podocyte monolayer = assay: Albumin permeability across differentiated podocyte monolayer (Transwell); assay type: cell-based, mouse; conditions: for Albumin permeability across podocyte monolayer: 1 mM; for Effect on the protective effect of adiponectin on podocyte permeability: ARA-A 1 mM pre-treatment prior to addition of adiponectin; for Permeability of albumin across a podocyte monolayer: adiponectin (globular or full length) 3 μg/ml, serum free, vs. control
Method: Podocyte cell culture: Conditionally immortalized mouse podocytes were kindly provided by Dr. Peter Mundel (Albert Einstein College of Medicine, Bronx, N.Y.) and were cultured as previously described (27). The cells harbor a temperature-sensitive variant of the SV40 large T antigen (tsA58) that is inducible by γ-interferon and stable at 33° C. but rapidly degraded at 37° C. (27). At 33° C., the large T antigen allows for cellular proliferation. The proliferating cells are maintained in collagen I—coated flasks in RPMI-1640 media supplemented with 10% FBS and 10 units/ml mouse recombinant γ-interferon. When the cells have reached confluence, they are passaged and allowed to differentiate at 37° C. for 8-10 days without γ-interferon in Dulbecco's modified Eagle's medium containing 5.5 mmol/l glucose and 5% FCS. For the permeability assay a modification of a previously published protocol (28) was adopted. Differentiated podocytes (0.2×10^6 podocytes/well) plated on collagen coated 24 well Transwell plates (Corning) were serum-starved ovenight when confluent. Cells were then modulated with globular adiponectin (PepROTech Inc.) with or without 1 mM adenosine 9-p-D-arabinofuranoside (ARA-A) (Sigma, St. Louis, Mo.), for 24 h. Cells were then washed twice with PBS supplemented with 1 mM MgCl2 and 1 mM CaCl2. The upper compartment was refilled with 0.25 ml RPMI 1640 alone and the lower compartment with 0.5 ml RPMI 1640 supplemented with 40 mg/ml BSA and incubated for 2 hour at 37° C. Total protein concentration in the upper compartment was determined using a Bio-Rad protein assay (Bio-Rad Laboratories, Hercules, Calif.).

[1] = test system: Adiponectin KO (Ad−/−) mice; assay: Urine albumin/creatinine ratio in treated adiponectin KO mice; assay type: in vivo, mouse; conditions: Ad−/− mice at 4 months of age
Method: Adiponectin administration and animal studies: The mice were treated with 25 μg of recombinant human globular domain adiponectin (gAd; PepROTech, Rocky Hill, N.J.) subcutaneously twice daily for 10 consecutive days. The control animals were given PBS alone. 24-hour urines from each mouse were collected twice: one week before the injections and on the last day of the injections. The urine albumin and creatinine were measured with a mouse Albuwell ELISA kit and a Creatinine Companion kit (Exocell, Philadelphia, Pa.) (25,26). The mice were sacrificed five hours after the final gAd injection under anesthesia. Portions of kidney cortex were fixed in buffered formalin and embedded in paraffin. A portion of kidney cortical tissue was cut into 1 mm^3 pieces and fixed in 2.5% glutaraldehyde
(§1) Interventional animal studies: The mice were treated with 25 μg of recombinant human globular domain adiponectin gAd (PepROTech, Rocky Hill, N.J.), administered 25 μg/mouse twice a day for 10 consecutive days or full-length adiponectin (fAd) was administered using an AAV vector (AAV2/8 CMV fAd virus 4×1011 GC/mouse for 10 days). A separate group of Ad−/− mice were treated with 5-aminoimidazole-4-carboxamide-1-beta-D-ribonucleoside (AICAR) with a single i.p. dose of 300 mg/kg. The control animals were given PBS alone or control AAV. 24-hour urines from each mouse were collected before treatment and on the last day of the treatment period. The urine albumin and creatinine were measured with a mouse Albuwell ELISA kit and a Creatinine Companion kit (Exocell, Philadelphia, Pa.) (26, 25). As an index of oxidant stress timed urine collections were also analyzed for hydrogen peroxide by Amplex red assay (Invitrogen/Molecular Probes, Carlsbad, Calif.) following the manufacturer's protocol. Portions of liver, muscle and kidney was snap-frozen in liquid nitrogen for RNA isolation. An additional aliquot of normal kidney was frozen in OCT for immunofluorescent staining. […]

Ad−/− mice = assay: Urinary hydrogen peroxide (Amplex red) in Ad−/− mice; assay type: in vivo, mouse; conditions: 4 month-old Ad−/− mice
Method: as §1

Nox4 = Nox4 protein in cultured podocytes (immunoblot, confocal); assay type: cell-based, mouse; conditions: AICAR; podocytes grown in high glucose (HG)

## Nc1ncnc2c1ncn2[C@@H]1O[C@H](CO)[C@@H](O)[C@@H]1O [ARA-A, adenosine 9-p-D-arabinofuranoside]
Podocyte monolayer; AMPK inhibitor ARA-A alone
  Albumin permeability across podocyte monolayer: increased permeability to albumin
Podocyte monolayer; AMPK inhibitor ARA-A alone, listed as ARA
  Albumin permeability across podocyte monolayer: increased
Podocyte monolayer
  Effect on the protective effect of adiponectin on podocyte permeability: prevented the protective effects of adiponectin on podocyte permeability; also recorded: increased permeability to albumin; also recorded: blocked protective effect of adiponectin
Podocyte monolayer; listed as ARA
  Effect on the protective effect of adiponectin on podocyte permeability: blocked

## NC(=O)c1ncn([C@@H]2O[C@H](CO)[C@@H](O)[C@H]2O)c1N [AICAR, 5-aminoimidazole-4-carboxamide-1-beta-D-ribonucleoside, reference compound]
[1]; AICAR single i.p. dose of 300 mg/kg, 300 mg/kg
  Urine albumin/creatinine ratio (albuminuria): restored albuminuria; also recorded: significantly decreased urine albumin/creatinine to the control values seen in WT mice
Ad−/− mice; AICAR single i.p. dose of 300 mg/kg
  Urinary levels of hydrogen peroxide: reduced
Nox4
  Podocyte Nox4 protein: reduced Nox4 protein levels to a similar degree as adiponectin
Podocyte monolayer; AMPK activator AICAR
  Albumin permeability across podocyte monolayer: decreased

B1: fAd: full-length adiponectin; in mice administered using an AAV vector (AAV2/8 CMV fAd virus) (protein, listed as Homo sapiens)
chain: MLLLGAVLLLLALPGHDQETTTQGPGVLLPLPKGACTGWMAGIPGHPGHNGAPGRDGRDGTPGEKGEKGDPGLIGPKGDIGETGVPGAEGPRGFPGIQGRKGEPGEGAYVYRSAFSVGLETYVTIPNMPIRFTKIFYNQQNHYDGSTGKFHCNIPGLYYFAYHITVYMKDVKVSLFKKDKAMLFTYDQYQENNVDQASGSVLLHLEVGDQVWLQVYGEGERNGLYADNDNDSTFTGFLLYHDTN
modifications: delivered via AAV2/8 CMV vector
[1]; fAd by AAV vector, 10 days
  Urine albumin/creatinine ratio (albuminuria): significantly decreased urine albumin/creatinine to the control values seen in WT mice
Ad−/− mice; fAd by AAV vector, 10 days
  Urinary levels of hydrogen peroxide: reduced
Podocyte monolayer
  Permeability of albumin across a podocyte monolayer: reduced
Podocyte monolayer; listed as full length adiponectin
  Permeability of albumin across a podocyte monolayer: significantly reduced
